≈ marks a conversion by molar mass, not a printed value.
Legend:
Experiment in all cases: ≥ marks a high value that may be exact or a test limit, other limits are often not marked, values filed in µg/mL are converted to µM
[1] = test system: Streptococcus mutans UA159
[2] = test system: Streptococcus mutans GS-5
[3] = test system: Streptococcus sanguinis ATCC 49295
[4] = test system: Streptococcus gordonii ATCC 10558
Candida albicans = test system: Candida albicans
[5] = test system: Staphylococcus aureus ATCC 25923
[6] = test system: Staphylococcus epidermidis
Escherichia coli UB1005 = test system: Escherichia coli UB1005
[7] = test system: Salmonella enterica serovar Typhimurium
[8] = test system: Pseudomonas aeruginosa H103
[9] = test system: Enterococcus faecalis ATCC 29212
[10] = test system: Pectobacterium carotovorum subsp. carotovorum DSM 30168
[11] = test system: Clavibacter michiganensis subsp. michiganensis DSM 46294
[12] = test system: Pseudomonas corrugata DSM 7228
[13] = test system: Pseudomonas syringae pv. tomato DC3000
[14] = test system: Xanthomonas vesicatoria DSM 50861
[15] = test system: Pseudomonas syringae pv. syringae DSM 10604
[16] = test system: Pseudomonas aeruginosa ATCC 15692
Micrococcus luteus = test system: Micrococcus luteus
[17] = test system: Escherichia coli ATCC 25922
Saccharomyces cerevisiae = test system: Saccharomyces cerevisiae
Bacillus subtilis = test system: Bacillus subtilis
Escherichia coli JM109 = test system: Escherichia coli JM109
Klebsiella pneumoniae = test system: Klebsiella pneumoniae

CC(C)C[C@H](NC(=O)[C@H](CCCN=C(N)N)NC(=O)[C@H](Cc1ccccc1)NC(=O)[C@H](Cc1ccccc1)NC(=O)[C@@H](NC(=O)[C@@H](N)CO)[C@@H](C)O)C(=O)N[C@@H](Cc1ccccc1)C(=O)N[C@@H](CC(N)=O)C(=O)N[C@@H](CCCN=C(N)N)C(=O)N[C@@H](CO)C(=O)N[C@@H](Cc1ccccc1)C(=O)N[C@H](C(=O)N[C@@H](CCC(N)=O)C(=O)O)[C@@H](C)O [STFFRLFNRSFTQ]
MIC [1]: ≥ 155 µM | MIC [2]: ≥ 155 µM | MIC [3]: ≥ 155 µM | MIC [4]: ≥ 155 µM

CC(C)C[C@H](NC(=O)[C@H](CCCN=C(N)N)NC(=O)[C@H](Cc1ccccc1)NC(=O)[C@H](Cc1ccccc1)NC(=O)[C@@H](N)[C@@H](C)O)C(=O)N[C@@H](Cc1ccccc1)C(=O)N[C@@H](CC(N)=O)C(=O)N[C@@H](CCCN=C(N)N)C(=O)NCC(=O)N[C@@H](CCCN=C(N)N)C(=O)N[C@@H](CCCN=C(N)N)C(=O)N[C@@H](CCCN=C(N)N)C(=O)N[C@@H](CCCN=C(N)N)C(=O)N[C@@H](CO)C(=O)N[C@H](C(=O)N[C@@H](CCC(N)=O)C(=O)N[C@@H](Cc1c[nH]c2ccccc12)C(=O)N[C@@H](CS)C(=O)N[C@@H](C)C(=O)O)C(C)C [TFFRLFNRGRRRRSVQWCA]
MIC [1]: 4.34 µM (≈ 10.7 µg/mL) | MIC [2]: 5.06 µM (≈ 12.4 µg/mL) | MIC [3]: ≥ 40.5 µM | MIC [4]: 20.3 µM (≈ 49.8 µg/mL)

CC[C@H](C)[C@H](N)C(=O)N[C@@H](CCCN=C(N)N)C(=O)N[C@@H](CCSC)C(=O)N[C@@H](CCCN=C(N)N)C(=O)N[C@H](C(=O)N[C@@H](CCCN=C(N)N)C(=O)N[C@H](C(=O)N[C@@H](CC(C)C)C(=O)N[C@@H](CC(C)C)C(=O)O)C(C)C)[C@@H](C)CC [IRMRIRVLL]
MIC (Candida albicans): 16 µM (≈ 18.7 µg/mL) | MIC [5]: 4 µM (≈ 4.68 µg/mL) | MIC [6]: 2 µM (≈ 2.34 µg/mL) | MIC (Escherichia coli UB1005): 2 µM (≈ 2.34 µg/mL) | MIC [7]: 4 µM (≈ 4.68 µg/mL) | MIC [8]: 16 µM (≈ 18.7 µg/mL) | MIC [9]: 16 µM (≈ 18.7 µg/mL)

CC(C)C[C@H](NC(=O)[C@H](C)NC(=O)[C@H](CCCCN)NC(=O)[C@H](CCCCN)NC(=O)[C@H](C)NC(=O)[C@H](Cc1ccccc1)NC(=O)[C@H](CCCN=C(N)N)NC(=O)[C@@H](N)CC(C)C)C(=O)N[C@@H](CCCCN)C(=O)N[C@@H](CCCCN)C(=O)N[C@@H](CC(C)C)C(=O)N[C@@H](Cc1ccccc1)C(N)=O [LRFAKKALKKLF]
MIC [10]: 6.84 µM (≈ 9.99 µg/mL) | MIC [11]: 1.71 µM (≈ 2.5 µg/mL) | MIC [12]: 0.684 µM (≈ 0.999 µg/mL) | MIC [13]: 0.171 µM (≈ 0.25 µg/mL) | MIC [14]: 1.71 µM (≈ 2.5 µg/mL) | MIC [15]: 0.171 µM (≈ 0.25 µg/mL)

CC[C@H](C)[C@H](NC(=O)[C@@H](N)Cc1ccccc1)C(=O)NCC(=O)N[C@@H](C)C(=O)N[C@@H](CC(C)C)C(=O)N[C@@H](CC(C)C)C(=O)N[C@@H](CCCN=C(N)N)C(=O)N1CCC[C@H]1C(=O)N[C@@H](C)C(=O)N[C@@H](CC(C)C)C(=O)N[C@@H](CCCCN)C(=O)N[C@@H](CC(C)C)C(=O)N[C@@H](CC(C)C)C(=O)N[C@@H](C)C(=O)NCC(=O)N[C@@H](CCCCN)C(N)=O [FIGALLRPALKLLAGK]
MIC [16]: ≥ 256 µM | MIC (Micrococcus luteus): 4 µM (≈ 6.72 µg/mL) | MIC [5]: 16 µM (≈ 26.9 µg/mL) | MIC [17]: 32 µM (≈ 53.8 µg/mL) | MIC (Saccharomyces cerevisiae): ≥ 128 µM

CC[C@H](C)[C@H](NC(=O)[C@H](CCCCN)NC(=O)[C@H](CCCCN)NC(=O)[C@H](Cc1ccccc1)NC(=O)[C@@H](NC(=O)[C@H](CCCCN)NC(=O)[C@H](Cc1c[nH]c2ccccc12)NC(=O)[C@@H](N)CCCN=C(N)N)[C@@H](C)CC)C(=O)N[C@@H](CCC(=O)O)C(=O)N[C@@H](CCCCN)C(=O)N[C@@H](CCSC)C(=O)NCC(=O)NCC(=O)N[C@@H](CO)C(=O)N[C@@H](Cc1ccc(O)cc1)C(=O)N[C@@H](CS)C(=O)N[C@@H](CC(N)=O)C(=O)N[C@@H](CCCN=C(N)N)C(=O)N[C@@H](CCCN=C(N)N)C(=O)N[C@H](C(=O)NCC(=O)N[C@@H](CCCCN)C(=O)N[C@@H](CS)C(=O)N[C@@H](CCC(N)=O)C(=O)N[C@@H](CCCN=C(N)N)C(=O)N[C@@H](CCSC)C(=O)O)[C@@H](C)O [RWKIFKKIEKMGGSYCNRRTGKCQRM]
MIC (Candida albicans): 50 µM (≈ 160 µg/mL) | MIC (Bacillus subtilis): 10 µM (≈ 32.1 µg/mL) | MIC (Escherichia coli JM109): 28.3 µM (≈ 90.7 µg/mL) | MIC (Klebsiella pneumoniae): 80 µM (≈ 256 µg/mL) | MIC (Saccharomyces cerevisiae): 28.3 µM (≈ 90.7 µg/mL)

CC[C@H](C)[C@H](NC(=O)[C@H](CC(C)C)NC(=O)[C@H](CCSC)NC(=O)[C@H](CCCN=C(N)N)NC(=O)[C@H](Cc1c[nH]c2ccccc12)NC(=O)[C@H](Cc1c[nH]c2ccccc12)NC(=O)[C@H](CCCCN)NC(=O)[C@H](Cc1ccccc1)NC(=O)[C@@H](N)CCCCN)C(=O)O [KFKWWRMLI]
MIC (Candida albicans): 4.6 µM (≈ 6.02 µg/mL) | MIC [5]: 1.2 µM (≈ 1.57 µg/mL) | MIC [6]: 0.6 µM (≈ 0.785 µg/mL) | MIC (Escherichia coli UB1005): 0.6 µM (≈ 0.785 µg/mL) | MIC [7]: 2.3 µM (≈ 3.01 µg/mL) | MIC [8]: 4.6 µM (≈ 6.02 µg/mL) | MIC [9]: 2.3 µM (≈ 3.01 µg/mL)

CC(C)C[C@H](NC(=O)[C@H](CCCN=C(N)N)NC(=O)[C@H](Cc1ccccc1)NC(=O)[C@H](Cc1ccccc1)NC(=O)[C@@H](NC(=O)[C@@H](N)CO)[C@@H](C)O)C(=O)N[C@@H](Cc1ccccc1)C(=O)N[C@@H](CC(N)=O)C(=O)N[C@@H](CCCN=C(N)N)C(=O)N[C@@H](CO)C(=O)N[C@@H](Cc1ccccc1)C(=O)N[C@H](C(=O)N[C@@H](CCC(N)=O)C(=O)NCC(=O)N[C@@H](CCCN=C(N)N)C(=O)N[C@@H](CCCN=C(N)N)C(=O)N[C@@H](CCCN=C(N)N)C(=O)N[C@@H](CCCN=C(N)N)C(=O)N[C@@H](CO)C(=O)N[C@H](C(=O)N[C@@H](CCC(N)=O)C(=O)N[C@@H](Cc1c[nH]c2ccccc12)C(=O)N[C@@H](CS)C(=O)N[C@@H](C)C(=O)O)C(C)C)[C@@H](C)O [STFFRLFNRSFTQGRRRRSVQWCA]
MIC [1]: 3.55 µM (≈ 10.7 µg/mL) | MIC [2]: 4.43 µM (≈ 13.3 µg/mL) | MIC [3]: ≥ 33.1 µM | MIC [4]: 16.6 µM (≈ 49.8 µg/mL)

CC(C)C[C@H](NC(=O)[C@H](CCCN=C(N)N)NC(=O)[C@H](Cc1ccccc1)NC(=O)[C@H](Cc1ccccc1)NC(=O)[C@@H](NC(=O)[C@H](CO)NC(=O)[C@@H](N)CC(C)C)[C@@H](C)O)C(=O)N[C@@H](Cc1ccccc1)C(=O)N[C@@H](CC(N)=O)C(=O)N[C@@H](CCCN=C(N)N)C(=O)N[C@@H](CO)C(=O)N[C@@H](Cc1ccccc1)C(=O)N[C@H](C(=O)N[C@@H](CCC(N)=O)C(=O)O)[C@@H](C)O [LSTFFRLFNRSFTQ]
MIC [1]: ≥ 145 µM | MIC [2]: ≥ 145 µM | MIC [3]: ≥ 145 µM | MIC [4]: ≥ 145 µM

CC[C@H](C)[C@H](NC(=O)[C@H](CC(C)C)NC(=O)[C@H](CCCN=C(N)N)NC(=O)[C@H](CCCCN)NC(=O)[C@@H](NC(=O)[C@H](CC(C)C)NC(=O)[C@H](CCCCN)NC(=O)[C@H](CCCCN)NC(=O)[C@H](CCCN=C(N)N)NC(=O)[C@H](CCCCN)NC(=O)[C@H](CCCCN)NC(=O)[C@@H](N)CCCN=C(N)N)[C@@H](C)CC)C(N)=O [RKKRKKLIKRLI]
MIC [10]: 6.33 µM (≈ 9.99 µg/mL) | MIC [11]: 3.16 µM (≈ 5 µg/mL) | MIC [12]: 0.316 µM (≈ 0.5 µg/mL) | MIC [13]: 6.33 µM (≈ 9.99 µg/mL) | MIC [14]: 3.16 µM (≈ 5 µg/mL) | MIC [15]: 0.0633 µM (≈ 0.1 µg/mL)

Source: DBAASP
